Data taken from patent US20220389009A1, “SUBSTITUTED 1,6-NAPHTHYRIDINE INHIBITORS OF CDK5” (Goldfinch Bio, Inc., priority 2019, published 2022).

Columns and labels:
CDK2/CycA2 = CDK2/CycA2 (Homo sapiens, UniProt P24941); assay: CDK2 mobility shift assay (enzymatic activity of CDK2/CycA2); type: biochemical; conditions: 1.25 nM CDK2/CycA2, 37 μM ATP, FL Peptide 18, 120 min at room temperature; read-out: CDK2 IC50
In short: (§1)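 Phosphorylation of 1.5 μM fluorescent peptide was read by microfluidic mobility shift and fitted to IC50 (4-parameter), normalized to no-compound and no-enzyme controls. CDK5/p25 ran at 0.154 nM with […] ATP for 60 min, using peptide 29. CDK2/CycA2 ran at 1.25 nM with 37 μM ATP for 120 min, using peptide 18. Both included a 30-min compound preincubation in pH 7.5 buffer.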

CDK5/p25 = CDK5/p25 (Homo sapiens, UniProt Q00535); assay: CDK5 mobility shift assay (enzymatic activity of CDK5/p25); type: biochemical; conditions: for IC50: 0.154 nM CDK5/p25, FL peptide 29, 60 min at room temperature, read-out: CDK5 IC50; for CDK5/CDK2 specificity: fold more active against CDK5 than CDK2
In short: as §1

Chain of CDK5/p25 (Q00535 whole entry): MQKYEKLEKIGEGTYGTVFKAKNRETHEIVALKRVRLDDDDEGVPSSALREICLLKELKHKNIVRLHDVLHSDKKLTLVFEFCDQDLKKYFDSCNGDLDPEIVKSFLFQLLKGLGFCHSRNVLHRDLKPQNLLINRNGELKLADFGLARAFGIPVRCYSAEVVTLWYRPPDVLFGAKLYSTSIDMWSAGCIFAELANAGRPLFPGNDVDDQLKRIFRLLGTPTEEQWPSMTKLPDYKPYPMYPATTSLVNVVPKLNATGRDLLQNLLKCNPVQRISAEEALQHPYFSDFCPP
Chain of CDK5/p25 (Q15078 99-307 partner limits assumed): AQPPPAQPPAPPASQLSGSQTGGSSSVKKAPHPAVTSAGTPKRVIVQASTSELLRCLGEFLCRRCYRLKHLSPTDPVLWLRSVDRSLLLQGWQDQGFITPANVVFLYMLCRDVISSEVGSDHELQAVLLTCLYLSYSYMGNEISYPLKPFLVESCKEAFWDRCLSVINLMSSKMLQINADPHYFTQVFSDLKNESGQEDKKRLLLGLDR

SMILES	IC50 (CDK2/CycA2) [nM]	IC50 (CDK5/p25) [nM]	CDK5/CDK2 specificity (CDK5/p25)
CN1CCC(S(=O)(=O)c2ccc3cnc(Nc4ccc(N5CCOC5=O)cc4)cc3n2)CC1 [Compound 307]	10 to 100	< 10	++ (greater than 10-fold and less than or equal to 100-fold more active against CDK5 than CDK2)
CN1CCC(C(C)(O)c2ccc3cnc(Nc4cccc(N5CCOCC5)c4)cc3n2)CC1 (stereo not drawn) [Compound 348]	100 to 1000	< 10	++ (greater than 10-fold and less than or equal to 100-fold more active against CDK5 than CDK2)
CN1CCC(S(=O)(=O)c2ccc3cnc(Nc4ccc(N5CCOCC5)cc4)cc3n2)CC1 [Compound 262]	10 to 100	< 10	++ (greater than 10-fold and less than or equal to 100-fold more active against CDK5 than CDK2)
CNC(=O)c1ccc(Nc2cc3nc(S(=O)(=O)C4CCN(C)CC4)ccc3cn2)cc1 [Compound 268]	100 to 1000	< 10	++ (greater than 10-fold and less than or equal to 100-fold more active against CDK5 than CDK2)
Cc1ccccc1Nc1cc2nc(S(=O)(=O)C3CCN(C)CC3)ccc2cn1 [Compound 297]	100 to 1000	< 10	+++ (greater than 100-fold more active against CDK5 than CDK2)
OCc1ccn(-c2ccc(Nc3cc4nc(SC5CCNCC5)ccc4cn3)c(F)c2)n1 [Compound 108, [1-(3-fluoro-4-[[2-(piperidin-4-ylsulfanyl)-1,6-naphthyridin-7-yl]amino]phenyl)pyrazol-3-yl]methanol]	10 to 100	< 10	++ (greater than 10-fold and less than or equal to 100-fold more active against CDK5 than CDK2)
CS(=O)(=O)N(c1ccc2cnc(Nc3ccc(-n4cccn4)cc3F)cc2n1)C1CCNCC1 [Compound 106, N-(7-[[2-fluoro-4-(pyrazol-1-yl)phenyl]amino]-1,6-naphthyridin-2-yl)-N-(piperidin-4-yl)methanesulfonamide]	> 1000	> 1000	+ (10-fold or less more active against CDK5 than CDK2)
OCc1ccn(-c2ccc(Nc3cc4nc(C5(C6CCNCC6)CC5)ccc4cn3)c(F)c2)n1 [Compound 316, [1-[3-fluoro-4-([2-[1-(piperidin-4-yl)cyclopropyl]-1,6-naphthyridin-7-yl]amino)phenyl]pyrazol-3-yl]methanol]	> 1000	10 to 100	++ (greater than 10-fold and less than or equal to 100-fold more active against CDK5 than CDK2)
CN1CCC(C(O)c2ccc3cnc(Nc4ccc(-n5ccc(C(=O)O)n5)cc4F)cc3n2)CC1 (stereo not drawn) [Compound 292, 1-[3-fluoro-4-([2-[hydroxy(1-methylpiperidin-4-yl)methyl]-1,6-naphthyridin-7-yl]amino)phenyl]pyrazole-3-carboxylic acid]	100 to 1000	< 10	++ (greater than 10-fold and less than or equal to 100-fold more active against CDK5 than CDK2)
CN1CCC(S(=O)(=O)c2ccc3cnc(Nc4ccc(S(=O)(=O)N(C)C)cn4)cc3n2)CC1 [Compound 257]	10 to 100	10 to 100	+ (10-fold or less more active against CDK5 than CDK2)
CC(C)N1CCC(S(=O)(=O)c2ccc3cnc(Nc4ccc(-n5cccn5)cc4F)cc3n2)CC1 [Compound 380]	100 to 1000	10 to 100	++ (greater than 10-fold and less than or equal to 100-fold more active against CDK5 than CDK2)
CN1CCC([C@@](C)(O)c2ccc3cnc(Nc4ccccc4)cc3n2)CC1 [Compound 345, (1R)-1-(1-methylpiperidin-4-yl)-1-[7-(phenylamino)-1,6-naphthyridin-2-yl]ethanol]	10 to 100	< 10	++ (greater than 10-fold and less than or equal to 100-fold more active against CDK5 than CDK2)
OCc1ccn(-c2ccc(Nc3cc4nc(N(Cc5cn[nH]c5)C5CCNCC5)ccc4cn3)c(F)c2)n1 [Compound 287, [1-[3-fluoro-4-([2-[piperidin-4-yl(1H-pyrazol-4-ylmethyl)amino]-1,6-naphthyridin-7-yl]amino)phenyl]pyrazol-3-yl]methanol]	> 1000	10 to 100	++ (greater than 10-fold and less than or equal to 100-fold more active against CDK5 than CDK2)
CCN1CCC(N(CC(=O)O)c2ccc3cnc(Nc4ccc(-n5ccc(CO)n5)cc4F)cc3n2)CC1 [Compound 144, [(1-ethylpiperidin-4-yl)[7-([2-fluoro-4-[3-(hydroxymethyl)pyrazol-1-yl]phenyl]amino)-1,6-naphthyridin-2-yl]amino]acetic acid]	100 to 1000	< 10	+++ (greater than 100-fold more active against CDK5 than CDK2)
CN1CCC(S(=O)(=O)c2ccc3cnc(Nc4ccc(N5CCS(=O)(=O)CC5)cc4)cc3n2)CC1 [Compound 296]	10 to 100	< 10	++ (greater than 10-fold and less than or equal to 100-fold more active against CDK5 than CDK2)
O=C(c1ccc2cnc(Nc3ccc(-n4cccn4)cc3F)cc2n1)C1CCNCC1 [Compound 141, N-[2-fluoro-4-(pyrazol-1-yl)phenyl]-2-(piperidine-4-carbonyl)-1,6-naphthyridin-7-amine]	10 to 100	< 10	++ (greater than 10-fold and less than or equal to 100-fold more active against CDK5 than CDK2)
CN1CCC(C(C)(O)c2ccc3cnc(Nc4cccc(N5CCCC5=O)c4)cc3n2)CC1 (stereo not drawn) [Compound 350]	10 to 100	< 10	++ (greater than 10-fold and less than or equal to 100-fold more active against CDK5 than CDK2)
COC(=O)CCc1nnc(Nc2cc3nc(S(=O)(=O)C4CCN(C)CC4)ccc3cn2)s1 [Compound 264]	> 1000	> 1000	+ (10-fold or less more active against CDK5 than CDK2)
NC1CCN(C(=O)c2ccc3cnc(Nc4ccc(-n5cccn5)cc4F)cc3n2)C1 (stereo not drawn) [Compound 215, 2-(3-aminopyrrolidine-1-carbonyl)-N-[2-fluoro-4-(pyrazol-1-yl)phenyl]-1,6-naphthyridin-7-amine]	> 1000	100 to 1000	+ (10-fold or less more active against CDK5 than CDK2)
COC(=O)c1ccn(-c2ccc(Nc3cc4nc(C(O)C5CCN(C)CC5)ccc4cn3)c(F)c2)n1 (stereo not drawn) [Compound 347]	100 to 1000	< 10	+++ (greater than 100-fold more active against CDK5 than CDK2)
O=C(O)[C@H]1CNCC[C@@H]1Nc1ccc2cnc(Nc3ccc(-n4ccc(CO)n4)cc3F)cc2n1 [Compound 116, (3S,4S)-4-[[7-([2-fluoro-4-[3-(hydroxymethyl)pyrazol-1-yl]phenyl]amino)-1,6-naphthyridin-2-yl]amino]piperidine-3-carboxylic acid]	> 1000	100 to 1000	+ (10-fold or less more active against CDK5 than CDK2)
COc1ccc(-c2ccc(Nc3cc4nc(S(=O)(=O)C5CCN(CC6COC6)CC5)ccc4cn3)c(F)c2)cc1 [Compound 331]	100 to 1000	< 10	++ (greater than 10-fold and less than or equal to 100-fold more active against CDK5 than CDK2)
CN1CCC(S(=O)(=O)c2ccc3cnc(Nc4ccc(N5CCNC(=O)C5)cc4)cc3n2)CC1 [Compound 305]	10 to 100	< 10	++ (greater than 10-fold and less than or equal to 100-fold more active against CDK5 than CDK2)
O=C(O)[C@@H]1CNCC[C@@H]1Nc1ccc2cnc(Nc3ccc(-n4ccc(CO)n4)cc3F)cc2n1 (relative stereo) [Compound 131, cis-4-[[7-([2-fluoro-4-[3-(hydroxymethyl)pyrazol-1-yl]phenyl]amino)-1,6-naphthyridin-2-yl]amino]piperidine-3-carboxylic acid]	> 1000	100 to 1000	++ (greater than 10-fold and less than or equal to 100-fold more active against CDK5 than CDK2)
N#Cc1cccc(-c2ccc(Nc3cc4nc(C(O)C5CCN(CCO)CC5)ccc4cn3)c(F)c2)c1 (single isomer, unassigned) [Compound 251, 3′-fluoro-4′-[(2-[hydroxy[1-(2-hydroxyethyl)piperidin-4-yl]methyl]-1,6-naphthyridin-7-yl)amino]-[1,1′-biphenyl]-3-carbonitrile]	> 1000	10 to 100	++ (greater than 10-fold and less than or equal to 100-fold more active against CDK5 than CDK2)
CC(c1ccc2cnc(Nc3ccc(-c4cccnc4)cc3F)cc2n1)C1CCN(C)CC1 (stereo not drawn) [Compound 319]	100 to 1000	< 10	++ (greater than 10-fold and less than or equal to 100-fold more active against CDK5 than CDK2)
[O-][S@@+](c1ccc2cnc(Nc3ccc(-n4cccn4)cc3F)cc2n1)C1CCNCC1 [Compound 115, N-[2-fluoro-4-(pyrazol-1-yl)phenyl]-2-[(R)-piperidine-4-sulfinyl]-1,6-naphthyridin-7-amine]	10 to 100	< 10	++ (greater than 10-fold and less than or equal to 100-fold more active against CDK5 than CDK2)
CN1CCC(S(=O)(=O)c2ccc3cnc(Nc4ccccc4N4CCOCC4)cc3n2)CC1 [Compound 266]	> 1000	> 1000	++ (greater than 10-fold and less than or equal to 100-fold more active against CDK5 than CDK2)
